The source of these data is patent US20260297679A1, “ASSAYS FOR MONITORING INHIBITION OF RNA HELICASE DHX9” (ACCENT THERAPEUTICS, INC., priority 2023, published 2026).

Structures are written as SMILES.

The test system of one experiment is DHX9. Nature of the experiment: qPCR (SYBR Green) of circular and linear RNAs in HCT116 cells after DHX9 inhibition. The experiment is classed as cell-based. To be noted: 72 hours, FIG. 1. As to the method:
This experiment was conducted to evaluate circular and linear formats of different mRNA in HCT116 cells after treatment with DHX9 inhibitors by Quantitative Polymerase Chain Reaction (qPCR).
HCT116 cells were obtained from ATCC (CCL-247) and were grown and assayed in McCoy's 5a growth media supplemented with 10% FBS.
The cells were plated at pre-determined cell densities in 384-well cell culture plates and incubated overnight in 37° C. at 5% CO2. In a separate plate, reference and test compounds were prepared in DMSO stock solution and serially diluted 3-fold for 10 points. Compound 7 (0.1% final DMSO concentration) was transferred to the cell plate in designated wells, and incubated 37° C. at 5% CO2 for 72 hours.
RNA was extracted from the cells using the SYBR Green Fast Advanced Cell-to-CT kit according to manufacturer's (Invitrogen) protocol, and cDNA was reverse transcribed using the High Capacity RNA-to-cDNA Kit according to the manufacturer's (Invitrogen) protocol. Using RT^2 SYBR Green ROX qPCR Mastermix (Invitrogen) and thermal cycler conditions for the QuantStudio Thermocycler, qPCR was carried out using the below custom primer sequences obtained at Integrated DNA Technologies (IDT):
Data analysis was performed by using the QuantStudio Thermocycler software to determine threshold Ct values. ΔCt for circRNA or linRNA is calculated by normalizing the target gene Ct to the GAPDH housekeeping gene Ct for each sample. The inhibition activity is calculated by the following formula, whereas: […]
ΔCts: Mean of Ct(target gene)−Mean of Ct(GAPDH) for each sample
ΔCtc: Mean of Ct(target gene)−Mean of Ct(GAPDH) for DMSO control.
A general note: Quantitative PCR measures a nucleic acid by following its amplification.

The next experiment concerns human PBMCs. The experiment in a line: proliferation of human PBMCs (Cell-Titer Glo 2.0). The class given is cell-based. To be noted: Compound 1 0.01 μM to 10 μM, 10 days; FIG. 8B. As to the method: Next, the proliferation of PMBCs was examined following treatment with DHX9 inhibitor using the following assay.
Human PBMCs were thawed from a frozen cryotube in a 37° C. water bath and transferred to a flask with medium X-Vivo 15 supplemented with 5% Fetal Bovine Serum (FBS), 1% PenStrep, and 1% Glutamax. Flasks were incubated at 37 C for 30 minutes. PBMCs were harvested from flask and counted. PBMCs were diluted in medium and added to 96 well plates at 100,000 PBMCs per well. A stimulus mixture containing IL-15 at 1 ng/well, IL-21 at 5 ng/well, and CD40L at 5 ng/well was added to each well. Test compounds were prepared in DMSO stock solution and serially diluted. Compound (0.1% final DMSO concentration) was added to each well. DMSO was used as a negative control (high control, HC) and staurosporine was used a positive control (low control, LC). Plates were incubated at 37 C for 0, 2, 4, 6, 8, 10 days. Every other day, medium was replenished with stimulus and diluted compounds.
At each CTG time point, plate was removed from incubator and Cell-Titer Glo 2.0 reagent was added to each well according to manufacturer's (Promega) protocol and detected on an Envision. The inhibition activity was calculated following the formula below:
% Inhibition=100×(ReadoutHC−ReadoutSample)/(ReadoutHC−ReadoutLC)
PBMCs were exposed to Compound 1 at concentrations ranging from 0.01 μM to 10 μM for 10 days. […]

Consider `CS(=O)(=O)Nc1cccc(NC(=O)c2cc(Br)cs2)c1` [Compound 7, 4-bromo-N-(3-methanesulfonamidophenyl)thiophene-2-carboxamide], for which, in the experiment with DHX9, the “induction of AKR1A1 circRNA (Alu-mediated)” value is reported as “induced”, the “induction of BRIP1 circRNA (Alu-mediated)” value is recorded as “induced”, the “induction of DKC1 circRNA (Alu-mediated)” value is on record as “induced” and the “induction of SETD3 circRNA (non-Alu-mediated)” value is listed as “no induction of SETD3 cirRNA was observed”.

For `CN[C@@H]1C[C@H]2O[C@@](C)([C@@H]1OC)n1c3ccccc3c3c4c(c5c6ccccc6n2c5c31)C(=O)NC4` [staustoporine, staurosporine, reference compound], in the experiment on human PBMCs, the “proliferation of PBMCs” value is reported as “inhibited proliferation of PBMCs”.
